Test results from patent publication US5424328A, “Phenyl-imidazolidinone derivatives” (Farmitalia Carlo Erba S.r.l., priority 1992, dated 1995).

Columns and labels:
[1] = target: T1, serotonin 5-HT3 receptors (Rattus norvegicus, UniProt P35563); assay: Affinity for serotonin 5-HT3 receptors in rat entorhinal cortex, radioligand 3H-BRL 43694 binding
T1 construct: in rat entorhinal cortex; from tissue; host or cells: rat entorhinal cortex
T1 sequence (P35563 24-483): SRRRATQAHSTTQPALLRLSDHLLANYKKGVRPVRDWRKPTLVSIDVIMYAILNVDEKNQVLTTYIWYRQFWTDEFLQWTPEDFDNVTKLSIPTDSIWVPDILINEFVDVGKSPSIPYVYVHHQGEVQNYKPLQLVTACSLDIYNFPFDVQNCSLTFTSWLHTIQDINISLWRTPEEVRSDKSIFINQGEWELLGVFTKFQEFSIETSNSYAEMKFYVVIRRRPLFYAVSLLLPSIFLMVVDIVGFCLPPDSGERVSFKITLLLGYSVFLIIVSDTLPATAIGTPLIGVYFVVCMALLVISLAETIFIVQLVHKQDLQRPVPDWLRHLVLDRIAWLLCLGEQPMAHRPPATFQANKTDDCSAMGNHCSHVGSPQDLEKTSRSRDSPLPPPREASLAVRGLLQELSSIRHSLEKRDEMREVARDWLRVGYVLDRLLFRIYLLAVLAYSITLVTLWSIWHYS
Procedure: The affinity for serotonin 5-HT3 receptors was assessed for instance in rat entorhinal cortex using a selective radioligand 3H-BRL 43694 as described by Nelson and Thomas (1989).
NELSON D. R. and THOMAS D. R., [3H]-BRL 43694 (Granisetron), a specific ligand for 5-HT3 binding sites in rat brain cortical membranes, Biochem. Pharmac., 38, 1693-1695, 1989. The affinity data for a representative group of compounds of the invention are set out in following Table II.

[2] = target: T2, 5HT3 receptor (Rattus norvegicus, UniProt P35563); assay: Inhibition of the von Bezold-Jarisch chemoreflex evoked by 5-HT in the anesthetized rat (in vivo 5HT3 antagonist activity); conditions: 5-HT 20 ug/kg i.v.; for % inhibition of the Bezold-Jarisch reflex: mean ± S.E.M., 6 animals, * p < 0.01 vs controls; for ED50: iv, read-out: ED50 (limits)
T2 construct: in the anesthetized rat; from tissue; host or cells: whole anesthetized rat (in vivo); endogenous receptor
T2 sequence (P35563 24-483): T1 sequence (P35563 24-483)
Procedure: Pharmacol. 326, 36-44 (1984).
The following Table I reports the in vivo 5HT3 antagonist activity data obtained in this test for a representative group of compounds of the invention.
Inhibition of the Bezold-Jarisch reflex elicited by 5-HT
(20 ug/kg i.v.) by i.v. FCE-compounds in the anesthetized
Values are mean ± S.E.M. from 6 animals.
*p < 0.01 vs controls (Dunnett's test).

| Structure (SMILES) | IC50 [1] [nM] | % inhibition of the Bezold-Jarisch reflex ([2]; dose 1 μg/kg i.v.) [%] | % inhibition of the Bezold-Jarisch reflex ([2]; dose 3 μg/kg i.v.) [%] | % inhibition of the Bezold-Jarisch reflex ([2]; dose 10 μg/kg i.v.) [%] | ED50 [2] [µg/kg] | % inhibition of the Bezold-Jarisch reflex ([2]; dose 30 μg/kg i.v.) [%] | % inhibition of the Bezold-Jarisch reflex ([2]; dose 0.5 μg/kg i.v.) [%] | % inhibition of the Bezold-Jarisch reflex ([2]; dose 2 μg/kg i.v.) [%] | % inhibition of the Bezold-Jarisch reflex ([2]; dose 8 μg/kg i.v.) [%] | % inhibition of the Bezold-Jarisch reflex ([2]; dose 100 μg/kg i.v.) [%] |
| --- | --- | --- | --- | --- | --- | --- | --- | --- | --- | --- |
| Cc1[nH]cnc1CN1CCN(c2cccc(Cl)c2)C1=O [FCE 27733, 1-(5-methyl-1H-imidazol-4-yl)methyl-3-(3-chlorophenyl)-imidazolidin-2-one] | 2.1 | 7.0 ± 6.0 | 37.8 ± 5.8 | 89.7 ± 1.8 | 5.26 | – | – | – | – | – |
| Cc1[nH]cnc1CN1CCN(c2cccc(Br)c2)C1=O [FCE 28159, 1-(5-methyl-1H-imidazol-4-yl)methyl-3-(3-bromophenyl)-imidazolidin-2-one] | 2.7 | – | 30.0 ± 5.9 | 64.2 ± 5.0 | 6.5 | 84.4 ± 4.2 | – | – | – | – |
| Cc1[nH]cnc1CN1CCN(c2cc(Cl)cc(Cl)c2)C1=O [FCE 28232, 1-(5-methyl-1H-imidazol-4-yl)methyl-3-(3,5-dichlorophenyl)-imidazolidin-2-one] | 0.42 | 18.2 ± 2.4 | – | – | 2.2 | – | 1.5 ± 4.8 | 55.5 ± 7.1 | 88.7 ± 1.8 | – |
| Cc1[nH]cnc1CN1CCN(c2cccc(C#N)c2)C1=O [FCE 28276, 1-(5-methyl-1H-imidazol-4-yl)methyl-3-(3-cyanophenyl)-imidazolidin-2-one] | 11 | – | – | 14.3 ± 9.2 | 32.2 | 44.5 ± 7.3 | – | – | – | 87.7 ± 7.0 |
| Cc1[nH]cnc1CN1CCN(c2ccccc2)C1=O [FCE 28277, 1-(5-methyl-1H-imidazol-4-yl)methyl-3-phenyl-imidazolidin-2-one] | 14 | 14.7 ± 3.8 | 37.4 ± 6.5 | 79.4 ± 4.1 | 3.9 | – | – | – | – | – |
| CSc1cccc(N2CCN(Cc3nc[nH]c3C)C2=O)c1 [FCE 28278, 1-(5-methyl-1H-imidazol-4-yl)methyl-3-(3-methylthiophenyl)-imidazolidin-2-one] | 6.7 | – | – | 16.8 ± 8.1 | 28.6 | 54.7 ± 2.3 | – | – | – | 85.8 ± 1.2 |
| O=C1N(Cc2c[nH]cn2)CCN1c1ccccc1 [FCE 28307, 1-(1H-imidazol-4-yl)methyl-3-phenyl-imidazolidin-2-one] | 44 | – | – | – | – | – | – | – | – | 56.1 ± 10.3 |
| Cc1cccc(N2CCN(Cc3nc[nH]c3C)C2=O)c1 [FCE 28355, 1-(5-methyl-1H-imidazol-4-yl)methyl-3-(3-methylphenyl)-imidazolidin-2-one] | 4 | 14.6 ± 7.3 | 51.1 ± 4.3 | 83.3 ± 3.5 | 3.1 | – | – | – | – | – |
| Cc1cc(C)cc(N2CCN(Cc3nc[nH]c3C)C2=O)c1 [FCE 28356, 1-(5-methyl-1H-imidazol-4-yl)methyl-3-(3,5-dimethylphenyl)-imidazolidin-2-one] | 1.8 | – | – | – | – | – | – | – | – | 88.6 ± 2.4 |
